{"source": "the OPERA property sets (Mansouri et al. 2018)", "data": [{"smiles": "O=C1CC(Sc2ccccc2C(=O)OCc2ccccc2)N1", "note": "(stereo not given)", "values": [{"measurement": "logP", "result": 2.62}]}, {"smiles": "O=C1CC(Sc2ccc3ccccc3c2)N1", "note": "(stereo not given)", "values": [{"measurement": "logP", "result": 2.64}]}, {"smiles": "O=C1CC(Oc2cccc3ccccc23)N1", "note": "(stereo not given)", "values": [{"measurement": "logP", "result": 2.66}]}, {"smiles": "CCOC(=O)CN1C(=O)CC1Oc1ccc2ccccc2c1", "note": "(stereo not given)", "values": [{"measurement": "logP", "result": 2.8}]}, {"smiles": "O=C1CC(Oc2ccc(-c3ccccc3)cc2)N1", "note": "(stereo not given)", "values": [{"measurement": "logP", "result": 2.61}]}, {"smiles": "O=C1CC(Oc2cccc(C(=O)OCc3ccccc3)c2)N1", "note": "(stereo not given)", "values": [{"measurement": "logP", "result": 2.83}]}, {"smiles": "O=C1CC(Oc2ccccc2C(=O)c2ccccc2)N1", "note": "(stereo not given)", "values": [{"measurement": "logP", "result": 1.83}]}, {"smiles": "O=C1CC(Sc2ccc(Cl)cc2)N1", "note": "(stereo not given)", "values": [{"measurement": "logP", "result": 2.31}]}, {"smiles": "O=C1CC(Oc2ccc(C(=O)c3ccccc3)cc2)N1", "note": "(stereo not given)", "values": [{"measurement": "logP", "result": 2.14}]}, {"smiles": "CCOC(=O)CN1C(=O)CC1Sc1ccc2ccccc2c1", "note": "(stereo not given)", "values": [{"measurement": "logP", "result": 3.4}]}, {"smiles": "O=C1CC(Oc2ccc3ccccc3c2)N1", "note": "(stereo not given)", "values": [{"measurement": "logP", "result": 2.29}]}, {"smiles": "CCOC(=O)CN1C(=O)CC1Oc1ccc(C(=O)C=Cc2ccccc2)cc1", "note": "(stereo not given)", "values": [{"measurement": "logP", "result": 3.3}]}, {"smiles": "O=C1CC(Oc2ccc(C(=O)C=Cc3ccccc3)cc2)N1", "note": "(stereo not given)", "values": [{"measurement": "logP", "result": 2.56}]}, {"smiles": "CCOC(=O)CN1C(=O)CC1Oc1ccc(C(=O)c2ccccc2)cc1", "note": "(stereo not given)", "values": [{"measurement": "logP", "result": 3}]}, {"smiles": "CC(C)(C)OC(=O)CN1C(=O)CC1Oc1ccc2ccccc2c1", "note": "(stereo not given)", "values": [{"measurement": "logP", "result": 3.6}]}]}
